Blank lines part the entries; values can stand above or below the compound they belong to. Activity calls are given as the source filed them.
Assays:
[1] = target: Kappa-type opioid receptor (Homo sapiens, UniProt P41145); test: kappa opioid receptor antagonism potency – cell-based, fluorescence, dose response, late-stage follow-up (AID 652032); assay type: functional
[2] = PAX5 cellular inhibition readout – cell-based, plate reader, dry powder samples, selectivity assay for PAX8 inhibitor project, dose response (AID 743047); assay type: functional;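 also: HEK293 cells carrying a Pax5 driven CD19 promoter luciferase reporter; potency of inhibitors that lower reporter luminescence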
[3] = OV-90 cell viability loss – plate reader, dry powder, SA8, PAX8 inhibitor project, dose response (AID 743149); assay type: functional, cell-based
Paired box protein Pax-8 = Paired box protein Pax-8 (Homo sapiens, UniProt Q06710); test: PAX8 transcriptional activity inhibition in RMG-I – RMG-I cells, luciferase, cherry-pick, dose response (AID 687027); assay type: functional, cell-based;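 also: luciferase reporter driven by Pax8 target thyroperoxidase promoter measured by SteadyGlo luminescence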
Paired box protein Pax-8, sequence (Q06710 whole entry): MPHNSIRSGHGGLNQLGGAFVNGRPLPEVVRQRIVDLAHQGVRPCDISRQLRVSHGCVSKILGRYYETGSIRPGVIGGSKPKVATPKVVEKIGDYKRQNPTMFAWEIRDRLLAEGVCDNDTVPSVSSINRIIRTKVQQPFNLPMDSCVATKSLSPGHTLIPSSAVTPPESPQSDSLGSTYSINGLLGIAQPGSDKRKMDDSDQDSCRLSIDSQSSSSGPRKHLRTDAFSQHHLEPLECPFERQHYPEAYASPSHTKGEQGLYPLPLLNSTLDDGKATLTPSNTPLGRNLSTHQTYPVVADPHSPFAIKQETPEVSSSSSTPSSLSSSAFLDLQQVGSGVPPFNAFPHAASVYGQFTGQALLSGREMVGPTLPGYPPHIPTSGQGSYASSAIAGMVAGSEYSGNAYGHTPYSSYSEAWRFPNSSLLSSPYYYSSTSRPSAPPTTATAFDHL

[4] = inhibitors acting on PAX2 in cells – cell-based, plate reader, dry powder samples, selectivity assay for PAX8 inhibitor project, dose response (AID 743048); assay type: functional;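 also: HEK293 cells carrying a WT1 promoter luciferase reporter driven by expressed Pax2; potency is for inhibition of Pax2 driven reporter signal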
[5] = general mammalian cell viability loss – activator set, cherry-pick, cytotoxicity control for miR-122 modulator project, dose response (AID 720690); assay type: functional, cell-based;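 also: HEK293T human cells scored for general mammalian cytotoxicity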
[6] = reduced cellular PGC1a acetyl-lysine signal – cell-based, cherry-picked samples, dose response (AID 720514); assay type: functional;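 also: potency may reflect raised or lowered acetylation signal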
[7] = P. falciparum Dd2 growth inhibitors, dose response, SYBR Green, cherry-picked samples (AID 1159567); assay type: functional, cell-based
[8] = toxicity to human hepatoma HepG2 cells – cell-based, cherry-picked samples, cytotoxicity control, dose response (AID 1159577); assay type: functional
[9] = activation of miR-122 Renilla sensor silencing – cell-based, Huh7 psiCHECK-miR122, Renilla luciferase, cherry-picked, dose response (AID 651956); assay type: functional;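 also: huh7 hepatoma cells stably carrying a psiCHECK-2 miR-122 sensor plasmid; renilla luciferase signal reporting endogenous miR-122 activity after 48 h compound exposure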
[10] = target: Metabotropic glutamate receptor 3 (Rattus norvegicus, UniProt P31422); test: inhibitors of rat mGlu3 Galpha15 signaling – TREx293 cells, calcium flux, mGlu3 NAM project, dose response (AID 651840); assay type: functional
Metabotropic glutamate receptor 3, sequence (P31422 whole entry): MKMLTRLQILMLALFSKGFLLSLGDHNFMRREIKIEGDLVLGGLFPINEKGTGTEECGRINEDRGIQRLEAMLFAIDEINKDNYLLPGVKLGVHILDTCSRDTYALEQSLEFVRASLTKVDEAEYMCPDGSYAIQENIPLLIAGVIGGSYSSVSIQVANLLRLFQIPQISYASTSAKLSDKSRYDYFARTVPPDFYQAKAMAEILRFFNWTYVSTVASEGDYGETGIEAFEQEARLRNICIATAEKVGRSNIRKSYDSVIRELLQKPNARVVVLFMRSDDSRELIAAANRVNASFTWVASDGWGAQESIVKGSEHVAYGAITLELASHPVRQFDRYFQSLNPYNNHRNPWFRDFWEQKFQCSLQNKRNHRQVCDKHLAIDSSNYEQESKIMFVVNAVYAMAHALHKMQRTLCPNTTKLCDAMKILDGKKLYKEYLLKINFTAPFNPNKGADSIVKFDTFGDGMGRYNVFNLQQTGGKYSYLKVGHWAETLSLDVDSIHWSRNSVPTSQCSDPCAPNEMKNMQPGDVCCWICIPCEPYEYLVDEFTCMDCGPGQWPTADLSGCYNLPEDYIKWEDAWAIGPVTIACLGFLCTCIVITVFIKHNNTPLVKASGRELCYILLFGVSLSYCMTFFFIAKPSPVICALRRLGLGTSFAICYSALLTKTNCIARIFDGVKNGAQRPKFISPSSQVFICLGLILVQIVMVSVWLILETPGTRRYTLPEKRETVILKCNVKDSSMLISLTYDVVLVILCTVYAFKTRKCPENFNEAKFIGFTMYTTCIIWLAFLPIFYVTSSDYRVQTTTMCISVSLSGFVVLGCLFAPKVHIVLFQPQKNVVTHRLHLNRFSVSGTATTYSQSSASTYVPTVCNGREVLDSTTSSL

Galanin receptor type 3 = Galanin receptor type 3 (Homo sapiens, UniProt O60755); test: Fluorescence-based cell-based primary high throughput dose response assay to identify antagonists of the Galanin Receptor 3 (GalR3).; assay type: functional
Galanin receptor type 3, sequence (O60755 whole entry): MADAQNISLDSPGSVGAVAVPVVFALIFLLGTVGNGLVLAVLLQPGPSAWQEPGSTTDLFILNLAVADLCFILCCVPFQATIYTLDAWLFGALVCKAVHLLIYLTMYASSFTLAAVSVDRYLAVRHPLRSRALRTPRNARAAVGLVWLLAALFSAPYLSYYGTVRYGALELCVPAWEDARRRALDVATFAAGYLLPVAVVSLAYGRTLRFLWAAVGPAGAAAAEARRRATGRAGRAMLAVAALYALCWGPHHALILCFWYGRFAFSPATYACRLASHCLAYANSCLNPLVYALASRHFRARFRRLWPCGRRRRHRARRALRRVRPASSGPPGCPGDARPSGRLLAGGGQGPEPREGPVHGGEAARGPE

cells = assay type: functional, cell-based; details: HEK-CNG
Mu-type opioid receptor = Mu-type opioid receptor (Homo sapiens, UniProt P35372); assay type: functional, cell-based;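 also: U2OS cells with beta-arrestin recruitment to OPRM1 by beta-gal complementation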
Mu-type opioid receptor, sequence (P35372 whole entry): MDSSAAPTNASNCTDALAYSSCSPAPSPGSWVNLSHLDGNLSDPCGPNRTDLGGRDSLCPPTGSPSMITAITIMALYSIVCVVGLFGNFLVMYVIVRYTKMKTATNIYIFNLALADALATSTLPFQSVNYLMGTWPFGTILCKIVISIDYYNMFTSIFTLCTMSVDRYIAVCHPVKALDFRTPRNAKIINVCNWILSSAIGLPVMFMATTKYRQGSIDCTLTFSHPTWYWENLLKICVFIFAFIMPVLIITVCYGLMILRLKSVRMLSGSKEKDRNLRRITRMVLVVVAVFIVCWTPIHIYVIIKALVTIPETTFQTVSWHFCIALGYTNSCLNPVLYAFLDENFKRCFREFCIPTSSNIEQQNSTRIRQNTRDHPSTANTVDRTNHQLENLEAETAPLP

[11] = target: 5-hydroxytryptamine receptor 2A (Mus musculus, UniProt P35363); assay type: functional, cell-based;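 also: CHO-K1 cells with tagged receptor and beta-arrestin; agonist potency measured as compound-induced activation of the receptor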
5-hydroxytryptamine receptor 2A, sequence (P35363 whole entry): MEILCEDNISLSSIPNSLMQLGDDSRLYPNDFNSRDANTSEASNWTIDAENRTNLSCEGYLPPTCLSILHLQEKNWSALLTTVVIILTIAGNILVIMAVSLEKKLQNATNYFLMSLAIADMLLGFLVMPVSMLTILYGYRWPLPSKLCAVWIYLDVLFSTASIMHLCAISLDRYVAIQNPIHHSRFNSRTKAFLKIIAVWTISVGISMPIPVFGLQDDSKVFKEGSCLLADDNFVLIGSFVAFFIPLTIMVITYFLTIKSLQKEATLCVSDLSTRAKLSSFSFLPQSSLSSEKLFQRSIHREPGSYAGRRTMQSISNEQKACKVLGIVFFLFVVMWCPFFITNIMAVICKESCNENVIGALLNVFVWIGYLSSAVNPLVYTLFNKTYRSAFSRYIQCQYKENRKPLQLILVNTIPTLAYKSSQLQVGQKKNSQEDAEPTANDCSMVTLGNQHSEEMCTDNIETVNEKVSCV

Kappa-type opioid receptor, sequence (P41145 whole entry): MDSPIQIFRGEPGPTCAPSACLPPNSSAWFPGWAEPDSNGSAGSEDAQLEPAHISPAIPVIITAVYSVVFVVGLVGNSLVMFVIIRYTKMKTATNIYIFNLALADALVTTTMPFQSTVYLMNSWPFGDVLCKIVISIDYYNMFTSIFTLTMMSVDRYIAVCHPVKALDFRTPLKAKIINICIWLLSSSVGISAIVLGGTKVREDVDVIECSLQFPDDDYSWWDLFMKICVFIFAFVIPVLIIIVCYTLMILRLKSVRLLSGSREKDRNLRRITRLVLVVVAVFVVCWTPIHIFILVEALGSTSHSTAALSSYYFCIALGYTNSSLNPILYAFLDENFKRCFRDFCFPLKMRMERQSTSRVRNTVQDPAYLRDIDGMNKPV

SMILES: COc1ccc(S(=O)(=O)N2CCCCN3[C@H](CO)[C@H](c4ccc(C#CC(C)C)cc4)[C@H]3C2)cc1
- AC50 [2]: 36.8 µM (active)
- AC50 [3]: 65.5 µM (active)
- AC50 (Paired box protein Pax-8): 10.4 µM (active)
- AC50 [4]: 40.7 µM (active)

SMILES: O=C(Nc1ccc(F)cc1)N1CCCCN2[C@H](CO)[C@H](c3ccc(C#Cc4ccccc4)cc3)[C@H]2C1
- AC50 [5]: 7.78 µM (active)
- AC50 [6]: 17.2 µM (active)
- AC50 [7]: 1.2 µM (active)
- AC50 [8]: 9.51 µM (active)
- AC50 [9]: 7.46 µM (active)

SMILES: CCC1(O)CCCN(C(=O)c2ccc(C#Cc3ccc(OC)cc3)cc2)C1 (stereo not given)
- IC50 [10]: 1.8 µM

SMILES: COC(=O)CSc1nc(N)c(C#N)c(-c2ccc(O)cc2)c1C#N
- IC50 (Galanin receptor type 3): > 29.9 µM (inactive)
- EC50 (cells): > 29.9 µM (inactive)

Other lines, results leading:

- IC50 [1]: 6.2 µM (active)
SMILES: COC(=O)c1cc(-c2ccccc2)cnc1N1CCC(NC2CCCCC2)CC1

- EC50 (Mu-type opioid receptor): 92.4 µM (inactive)
- EC50 [11]: 2.24 µM (active)
SMILES: O=C(c1ccco1)N1CCN(Cc2ccc(Br)cc2)CC1
